According to US20250289809A1, “COMPOUNDS USEFUL FOR GOUT” (ATOM BIOSCIENCE AMERICA CORPORATION, priority 2022, published 2025):

Tests used:
[1] = tested on: potassium oxonate -induced hyperuricemic rats; assay: Serum uric acid level in potassium oxonate-induced hyperuricemic rats after 3-day administration; format: in vivo, Sprague Dawley (SD) rats; conditions: for Uric acid: serum, mean ± SD, n=6; for Effect on serum uric acid level after modeling, compared with the model group at the same time point: 2 mg/kg gavage, hyperuricemic rats, result in words
Description: Compound 30 and 32 were light yellow powders and triturated with 0.5% CMC-Na just prior to use to prepare suspensions having a corresponding concentration for gavage.
Febuxostat, purchased from Sigma, was triturated with 0.5% CMC-Na just prior to use to prepare a suspension having a corresponding concentration for gavage.
Sprague Dawley (SD) rats, SPF grade, 30, male, weighing 230-250 g, purchased from Shanghai SLAC Laboratory Animal Co., Ltd., permission number: SCXK (hu) 2022-0004, quality certification number: 20220004017238.
Uric acid assay kit (phosphotungstic acid reduction method), batch number: 20230224, purchased from NanJing Jiancheng Bioengineering Institute; Potassium oxonate, article number: 00164, batch number: T6GKM-TA, purchased from Tokyo Chemical Industry Co., Ltd., Japan (TCI); carboxymethyl cellulose sodium (CMC-Na), batch number: 20170810, chemically pure, purchased from Sinopharm chemical reagent Co., Ltd.
30 male SD rats weighed approximately 220-240 g after one week of adaptation. They were randomly divided into 5 groups according to the body weight, with 6 rats in each group, namely: (1) normal group (0.5% CMC-Na), (2) model group (0.5% CMC-Na), (3) Febuxostat, 2 mg/kg, (4) compound 30, 2 mg/kg and (5) compound 32, 2 mg/kg. The drugs in each group were prepared into a corresponding concentration suspension, and the administration volume was 0.5 mL/100 g.
After the rats in each group were purchased and adapted to feeding, they were fasted for 12 h, and intraperitoneally injected with potassium oxonate at a dose of 300 mg/kg to establish a model. 0.5 h after modeling, each test drug group was subjected to gavage administration once. The drug was administered continuously for 3 days. On day 3, blood samples were collected from the retro-orbital venous plexus before and 1, 3 and 5 h after injection of potassium oxonate. The samples were centrifuged at 3500 rpm for 10 min, and 30 μL of serum was collected to measure the uric acid level at each time point.
The measurement data of each test were expressed as (mean)±(standard deviation). The comparison between groups used ANOVA-Dunnett T test to examine the significance. P<0.05 was used as the significance index, and P<0.01 was used as the extremely significant index.

[2] = In vivo pharmacokinetic experiments in SD rats (oral and intravenous); conditions: male, Sprague-Dawley (SD), rat, plasma
Protocol: Preparation of compound stock solution: An appropriate amount of compound solid powder was be weighed and added in a certain amount of DMSO, and vortex ultrasound to obtain a 10 mg/mL stock solution.
(§1) Preparation of test compound for gavage: respectively taking an appropriate amount of the compound stock solution, adding a certain amount of Solutol HS15 solution, vortexing for 1 minute, then adding a certain amount of physiological saline, and fully mixing to obtain a 1 mg/mL solution.
as §1, with “for intravenous injection:” for “for gavage:”, “mixing until uniform, so as” for “mixing”, “a 0.5” for “a 1”
SD rats, male, SPF grade, 6-8 weeks old, purchased from JH Laboratory Animal Co. LTD. Permission number: SCXK (SH) 2022-0009, certification number: 20220009004139.
The experimental animals were fasted overnight before gavage administration, and were given food 4 hours after administration, with free access to water. Each test compound was divided into two groups, namely, intravenous administration group and oral administration group.
Blood samples (150 μL/sample) were collected from the jugular vein of SD rats before administration and at 5 min (only intravenous administration group), 15 min, 30 min, 1 h, 2 h, 4 h, 8 h and 24 h after administration, respectively. The samples were placed in centrifuge tubes containing anticoagulant sodium heparin and centrifuged at 4° C., 2000 g for 5 minutes to separate plasma. The plasma samples were analyzed by LC/MS/MS to detect the concentration of each test compound.
Non-compartmental model-related parameters were calculated by WinNonlin® Professional software.

[3] = 0 h (before potassium oxonate injection on day 3), 2 mg/kg gavage once daily for 3 days
[4] = 1 h after potassium oxonate 300 mg/kg i.p. on day 3, 2 mg/kg gavage for 3 days
[5] = 3 h after potassium oxonate 300 mg/kg i.p. on day 3, 2 mg/kg gavage for 3 days
[6] = 5 h after potassium oxonate 300 mg/kg i.p. on day 3, 2 mg/kg gavage for 3 days
[7] = Intravenous injection administration - 1 mg/kg
[8] = po, Gavage administration - 10 mg/kg

| SMILES | Uric acid [1, 3] [µmol/L] | Effect on serum uric acid level after modeling, compared with the model group at the same time point [1] | Uric acid [1, 4] [µmol/L] | Uric acid [1, 5] [µmol/L] | Uric acid [1, 6] [µmol/L] | AUC(0-inf) [2, 7] [ng·h/mL] | Cmax [2, 7] [ng/mL] | MRT inf [2, 7] [h] | Tmax [2, 7] [h] | half-life [2, 7] [h] | AUC(0-inf) [2, 8] [ng·h/mL] | Cmax [2, 8] [ng/mL] | MRT inf [2, 8] [h] | Tmax [2, 8] [h] | half-life [2, 8] [h] |
| --- | --- | --- | --- | --- | --- | --- | --- | --- | --- | --- | --- | --- | --- | --- | --- |
| Cc1nc(-c2ccc(OCC(C)C)c(C#N)c2)sc1C(=O)O [Febuxostat, reference compound] | 39.2 ± 6.2 | significantly reduce | 34.4 ± 7.1 | 31.2 ± 7.6 | 24.7 ± 4.7 |  |  |  |  |  |  |  |  |  |  |
| CCOC(=O)OC(C)OC(=O)c1cnn(-c2ccc3c(c2)c(C#N)cn3C(C)C)c1 (stereo not shown) [compound 11, {1-[(ethoxycarbonyl)oxy]}ethyl 1-(3-cyano-1-isopropyl-1H-indol-5-yl)-1H-pyrazole-4-carboxylate] |  |  |  |  |  | 1100 | 1860 | 3.69 | 0.083 | 7.72 | 12400 | 4670 | 4.22 | 0.25 | 3.44 |
| CC(C)n1cc(C#N)c2cc(-n3cc(C(=O)OCCCCO[N+](=O)[O-])cn3)ccc21 [compound 30, [4-(nitrooxy)]butyl 1-(3-cyano-1-isopropyl-1H-indol-5-yl)-1H-pyrazole-4-carboxylate] | 45.0 ± 8.4 | significantly reduce | 70.0 ± 14.8 | 94.2 ± 22.7 | 72.2 ± 11.4 |  |  |  |  |  |  |  |  |  |  |
| CC(C)n1cc(C#N)c2cc(-n3cc(C(=O)Oc4cccc(CO[N+](=O)[O-])c4)cn3)ccc21 [compound 32, phenyl [3-(nitrooxy)methyl] 1-(3-cyano-1-isopropyl-1H-indol-5-yl)-1H-pyrazole-4-carboxylate] | 49.1 ± 6.7 | significantly reduce | 68.9 ± 15.8 | 82.2 ± 23.3 | 65.8 ± 13.6 |  |  |  |  |  |  |  |  |  |  |
